Reference: patent publication US20100256123A1, “P2X4 RECEPTOR ANTAGONIST” (NIPPON CHEMIPHAR CO., LTD., priority 2006, published 2010)

Target: T1, human P2X4 receptor (Homo sapiens, UniProt Q99571)
T1 sequence (Q99571 1-388): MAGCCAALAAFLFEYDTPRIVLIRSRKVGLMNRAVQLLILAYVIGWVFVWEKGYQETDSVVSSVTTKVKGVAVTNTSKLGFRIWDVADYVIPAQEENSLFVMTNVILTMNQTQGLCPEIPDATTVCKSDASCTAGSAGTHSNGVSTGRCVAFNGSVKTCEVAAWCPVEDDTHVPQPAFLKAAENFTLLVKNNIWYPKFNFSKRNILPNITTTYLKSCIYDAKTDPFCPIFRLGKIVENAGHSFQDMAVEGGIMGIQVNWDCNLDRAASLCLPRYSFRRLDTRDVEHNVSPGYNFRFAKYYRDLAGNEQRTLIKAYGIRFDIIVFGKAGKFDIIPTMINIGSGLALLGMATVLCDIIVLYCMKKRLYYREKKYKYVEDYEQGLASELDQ
Assay: P2X4 receptor antagonism: ATP-induced calcium change (Fura2-AM) in 1321N1 cells stably expressing human P2X4 receptor
Type: cell-based
Conditions: ATP (10 μm)-induced maximal calcium change = 100% control, compound applied 10 minutes before ATP; for Inhibition ratio % (at 10^−5 M): Pharmacological Experimental 2
Method: The P2X4 receptor antagonisms of the compounds according to the invention were determined in the following manner.
(§1) 1321N1 cells were transfected human P2X4 receptor-encoding expression vector using a EUGENE 6 transfection reagent (Roche). After cultivation of one week, it was confirmed that P2X4 receptor was stably expressed. Cells were loaded with Fura2-AM calcium fluorescent dye (SIGMA) and the fluorescence changes were monitored using Aqua-Cosmos (Hamamatsu Photonics). ATP (10 μm)-induced maximal […] calcium change was defined as 100% of control response to calculate the inhibition percentage of test compounds at each concentration. Test compounds were treated onto cells 10 minutes before ATP stimulation.
as §1, with “FuGENE” for “EUGENE”
The experimental procedures of Example 10 were repeated.

## O=C1CN=C(c2ccc(O)cc2)c2ccc3ccccc3c2N1 [Example 4, 5-(4-Hydroxyphenyl)-1,3-dihydro-2H-naptho-[1,2-e]-1,4-diazepin-2-one]
  Inhibition ratio % (at 10^−5 M): 53%

## O=C1CN=C(c2ccc(O)c(O)c2)c2ccc3ccccc3c2N1 [Example 9, 5-(3,4-Dihydroxyphenyl)-1,3-dihydro-2H-naptho[1,2-e]-1,4-diazepin-2-one]
  Inhibition ratio % (at 10^−5 M): 63%

## O=C1CN=C(c2cccc(O)c2)c2ccc3ccccc3c2N1 [Example 2, 5-(3-Hydroxyphenyl)-1,3-dihydro-2H-naptho-[1,2-e]-1,4-diazepin-2-one]
At 10^−5M, Pharmacological Experimental 1
  inhibition ratio: 69%
